Source: patent publication US20050050594A1, “Tryptophan synthase as a site of herbicide action” (priority 1999, published 2005)

Legend:
Arabidopsis thaliana = assay: Herbicidal activity and tryptophan reversal on Arabidopsis grown on agar medium; type: in vivo; design: key: 0 - no effect; 9 - total kill; C - chlorotic seedlings 4-6 days after treatment
Method: In this experiment, TS inhibitors were tested on Arabidopsis thaliana grown Murashige minimal organics medium, (obtained from Life Technologies, Grand Island, N.Y.), containing 0.7% agar. Compounds were tested at different concentrations to assess their herbicidal activity.

[1] = target: T1, Salmonella typhimurium tryptophan synthase holoenzyme (α2β2), TSα reaction (Salmonella typhimurium, UniProt P00929); assay: Inhibition of tryptophan synthase by the TSα reaction, microtiter kinetic coupled enzyme assay; type: biochemical
T1 construct: made in house; host or cells: E. coli strain CB149pSTB7
Outline: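 S. typhimurium α2β2 holoenzyme (~1.5 e.u.) in 50 mM Tris-Cl pH 7.8 with 60 mM serine, started with 100 μM IGP (1.5-2× Km), 37° C. Glyceraldehyde-3-P formation coupled to yeast GAPDH/1.6 mM NAD+, read at 340 nm. Inhibitor at 100 μM or 1:1 dilutions; some preincubated 24 h before IGP.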

[2] = system: mustard, hemp sesbania, soybean, lambsquarters, pigweed, bindweed, morningglory, corn, green foxtail, velvetleaf; assay: Early injury symptoms and species effects on postemergence treated plants; type: in vivo; details: post emergence, 4 or 8 kg/ha; for Symptoms 6 DAT: 6 days after application
Text: Herbicidal compounds of the invention were examined for their herbicidal effects by observing symptoms on postemergence treated plants.
Early injury symptoms caused by the TS-inhibiting herbicides of the invention are represented in Table 13. Symptoms and species effects are represented through the herbicidal activity {4-[(o-hydroxyphenyl)thio]butyl}-phosphonic acid, applied at 4 or 8 kg/ha.

T1 sequence (P00929 whole entry): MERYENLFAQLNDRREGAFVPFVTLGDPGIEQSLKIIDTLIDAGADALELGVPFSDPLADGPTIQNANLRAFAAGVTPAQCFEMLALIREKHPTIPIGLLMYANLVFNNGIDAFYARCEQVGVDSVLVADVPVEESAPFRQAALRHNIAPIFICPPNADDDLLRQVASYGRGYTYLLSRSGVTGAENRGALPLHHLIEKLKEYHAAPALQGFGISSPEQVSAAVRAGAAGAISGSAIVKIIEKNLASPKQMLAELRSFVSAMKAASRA
T1 sequence (P0A2K1 2-397, further chain): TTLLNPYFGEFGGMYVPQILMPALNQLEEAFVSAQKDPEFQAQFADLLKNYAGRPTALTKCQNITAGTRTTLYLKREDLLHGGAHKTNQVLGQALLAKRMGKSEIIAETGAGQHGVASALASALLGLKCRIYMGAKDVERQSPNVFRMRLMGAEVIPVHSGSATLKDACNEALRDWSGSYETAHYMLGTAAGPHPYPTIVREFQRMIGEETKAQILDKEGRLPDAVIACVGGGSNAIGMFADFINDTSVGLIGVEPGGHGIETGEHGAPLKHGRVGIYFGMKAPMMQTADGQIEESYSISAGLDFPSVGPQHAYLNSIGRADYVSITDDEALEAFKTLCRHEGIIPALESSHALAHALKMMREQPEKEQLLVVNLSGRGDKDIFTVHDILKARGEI

O=P(O)(O)CCCCSc1ccccc1O [Compound 22, {4-[(o-hydroxyphenyl)thio]butyl}-phosphonic acid]
herbicidal injury rating (Arabidopsis thaliana; herbicide 7.8 μM): 0
herbicidal injury rating (Arabidopsis thaliana; herbicide 16 μM): 1
herbicidal injury rating (Arabidopsis thaliana; herbicide 31 μM): 1C
herbicidal injury rating (Arabidopsis thaliana; herbicide 63 μM): 3C
herbicidal injury rating (Arabidopsis thaliana; herbicide 125 μM): 3C
herbicidal injury rating (Arabidopsis thaliana; herbicide 250 μM): 3C
herbicidal injury rating (Arabidopsis thaliana; herbicide 500 μM): 5C
herbicidal injury rating (Arabidopsis thaliana; herbicide 1000 μM): 6C
herbicidal rating (Arabidopsis thaliana; herbicide 7.8 mM, no Trp): 5
herbicidal rating (Arabidopsis thaliana; herbicide 16 mM, no Trp): 5
herbicidal rating (Arabidopsis thaliana; herbicide 31 mM + 100 μM Trp): 0
herbicidal rating (Arabidopsis thaliana; herbicide 31 mM, no Trp): 6
herbicidal rating (Arabidopsis thaliana; herbicide 63 mM + 100 μM Trp): 1
herbicidal rating (Arabidopsis thaliana; herbicide 63 mM, no Trp): 6
herbicidal rating (Arabidopsis thaliana; herbicide 125 mM + 100 μM Trp): 3
herbicidal rating (Arabidopsis thaliana; herbicide 125 mM, no Trp): 6
herbicidal rating (Arabidopsis thaliana; herbicide 250 mM + 100 μM Trp): 5
herbicidal rating (Arabidopsis thaliana; herbicide 250 mM, no Trp): 6
herbicidal rating (Arabidopsis thaliana; herbicide 500 mM + 100 μM Trp): 3
herbicidal rating (Arabidopsis thaliana; herbicide 500 mM, no Trp): 6
herbicidal rating (Arabidopsis thaliana; herbicide 1000 mM + 100 μM Trp): 3
herbicidal rating (Arabidopsis thaliana; herbicide 1000 mM, no Trp): 7
IC50 ([1]; I50 TS, TSα reaction of Salmonella holoenzyme): 130 nM
IC50 ([1]; TSα activity (Salmonella enzyme) I50): 130 nM
Symptoms 6 DAT ([2]; height reduction): height reduction: lambs quarter,
Symptoms 6 DAT ([2]; increased branching): increased branching: soybean
Symptoms 6 DAT ([2]; leaf mottling): leaf mottling: mustard, soybean,
Symptoms 6 DAT ([2]; leaf yellowing): leaf yellowing: mustard, hemp
Symptoms 6 DAT ([2]; shoot tip yellowing): shoot tip yellowing: hemp sesbania
Symptoms 6 DAT ([2]; tip necrosis): tip necrosis: hemp sesbania
Species effects, 13 DAT: bindweed ([2]; 13 days after application): bindweed: mottling, some necrosis,
Species effects, 13 DAT: corn ([2]; 13 days after application): corn: unaffected
Species effects, 13 DAT: green foxtail ([2]; 13 days after application): green foxtail: stunted, yellowing, red
Species effects, 13 DAT: hemp sesbania ([2]; 13 days after application): hemp sesbania: no growth between 6
Species effects, 13 DAT: lambsquarters height reduction ([2]; 13 days after application): lambsquarters: 40% height reduction,
Species effects, 13 DAT: pigweed height reduction ([2]; 13 days after application): pigweed: 25% height reduction
Species effects, 13 DAT: soybean ([2]; 13 days after application): soybean: shoot nearly dead except
Species effects, 13 DAT: velvetleaf height reduction ([2]; 13 days after application): velvetleaf: 50% height reduction
